Experimental findings from paper PMC9334755 (Cancer Biology & Medicine, 2021) are described below.

One series deals with T1, BTK wild-type (Homo sapiens, UniProt Q06187).
T1 construct: expressed in transfected cells; host or cells: HEK293 (methods list HEK293T)
Description: Fluorescent labelling of wild-type BTK in HEK293 cells. Type of series: cell-based. As to conditions: 1 h. The text has this:
(§1) The antibodies to β-actin (5125), poly(ADP-ribose) polymerase (PARP) (9532S), cleaved caspase-3 (9661S), BTK (8547), PLCγ2(55512), ERK1/2 (9107), phospho-PLCγ2 (Tyr1217) (3871), phospho-BTK (Tyr223) (87457), and ERK1/2 pT202/pY204 (4377) were purchased from Cell Signaling Technology. An Annexin V-PE Apoptosis Detection Kit (555763), and PE mouse anti-human CD69 (555531), PE mouse anti-human CD3 (555340), and PE mouse anti-human CD19 (561741) were purchased from BD Bioscience. Dynabeads® Human T-Activator CD3/CD28 (11161D) was purchased from Life Technology. Goat anti-human IgM F(ab)2 (2022) was purchased from SouthernBiotech. An HTRF® KinEASE™-TK Kit (62TK0PEC) was purchased from Cisbio. […]
(§2) Cells were treated as indicated before the addition of a fluorescent probe (FL-SY-1530). […] After scanning, the gels were detected with Western blot.
(§3) Figure 2 Irreversible targeting of BTK by SY-1530. […] (B) The content of the compounds was measured with LC-MS/MS after incubation with BTK for 4 h. […] (D) DOHH2 cells were treated with various concentrations of FL-SY-1530 for 1 h, after which cells were lysed and analyzed by SDS-PAGE with the indicated antibodies and fluorescent gel scanning with a Typhoon imaging system. […] (F) HEK293 cells expressing wild-type or C481A mutant BTK were treated with FL-SY-1530 or FL-ibrutinib for 1 h, and the cells were then lysed and analyzed. […]

The target of the next series is T2, BTK C481A mutant (Homo sapiens, UniProt Q06187, C481A).
T2 construct: expressed in transfected cells; host or cells: HEK293 (methods list HEK293T)
T2 sequence (Q06187 whole entry C481A): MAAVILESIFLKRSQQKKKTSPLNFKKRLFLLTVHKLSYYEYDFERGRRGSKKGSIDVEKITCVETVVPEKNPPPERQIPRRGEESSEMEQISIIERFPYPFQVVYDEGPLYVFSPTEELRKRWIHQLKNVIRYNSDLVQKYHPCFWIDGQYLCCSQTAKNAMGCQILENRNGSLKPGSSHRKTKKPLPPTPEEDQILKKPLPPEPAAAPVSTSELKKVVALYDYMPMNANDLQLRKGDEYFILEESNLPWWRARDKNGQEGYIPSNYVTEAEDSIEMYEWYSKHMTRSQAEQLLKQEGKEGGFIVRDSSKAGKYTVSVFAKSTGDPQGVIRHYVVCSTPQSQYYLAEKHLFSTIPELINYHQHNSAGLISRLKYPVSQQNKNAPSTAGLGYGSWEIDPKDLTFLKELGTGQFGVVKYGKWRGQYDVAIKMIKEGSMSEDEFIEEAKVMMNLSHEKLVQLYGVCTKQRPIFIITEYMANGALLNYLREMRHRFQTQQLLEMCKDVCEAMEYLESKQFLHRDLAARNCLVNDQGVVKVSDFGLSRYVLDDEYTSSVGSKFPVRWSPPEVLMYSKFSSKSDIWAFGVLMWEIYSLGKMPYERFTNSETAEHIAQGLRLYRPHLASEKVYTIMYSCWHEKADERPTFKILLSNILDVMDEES
Description: Fluorescent labelling of BTK C481A mutant in HEK293 cells. The class given is cell-based. As to conditions: 1 h.
From the text: as §1, §2, §3

A further series has as its system TMD8. The series can be described thus: Cell viability assay (CellTiter-Blue), TMD8. The class given is cell-based, human. As to conditions: Homo sapiens, TMD8, read-out: IC50 (nM), growth of TMD8. As for the experimental part: (§4) Cells were seeded on 96-well plates (9,000 cells/well), cultured at 37 °C in 5% CO2 overnight, and incubated with different concentrations of compounds for 3 or 7 days. Then the cells were stained with CellTiter-Blue® reagent (Promega) for 4 h at 37 °C. The fluorescence signals were detected with a FlexStation 3, and the IC50 values of each compound were determined with GraFit software (Version 6.0).
(Alamar Blue is a resazurin reagent that responds to reducing activity.)

For the next series, the system named is Pfeiffer. Description: Cell viability assay (CellTiter-Blue), Pfeiffer. Type of series: cell-based, human. The note with it: Homo sapiens; Pfeiffer cells; read-out: IC50 (nM), growth of Pfeiffer. As for the experimental part:
as §4

The test system of another series is B cell. Description: Cell viability assay (CellTiter-Blue), human B cells. Type of series: cell-based. The note with it: B-cell, read-out: IC50 (nM), growth of B cell. As for the experimental part:
as §4
(§5) CD19^+ B (>80% purity) and CD3^+ T (>90% purity) cells were purified with human B cell enrichment cocktail and human T cell enrichment cocktail (Stem Cell Technology), respectively. Cells were seeded on 12-well plates and incubated with different concentrations of BTK inhibitors for 1 h. B cells were stimulated with 50 µg/mL anti-human IgM F(ab′)2, and T cells were stimulated with 50 µg/mL anti-CD3/CD28 beads overnight. In the washout groups, the cell medium containing the indicated inhibitors was replaced with fresh medium before stimulation. Then cells were then incubated with anti-human CD69 for 1 h and analyzed with a Guava flow cytometer.

For the next series, the system named is T cell. Description: Cell viability assay (CellTiter-Blue), human T cells. The class given is cell-based. As to conditions: T-cell, read-out: IC50 (nM), growth of T cell. As for the experimental part: as §4, §5
The next series deals with human peripheral B cells. Description: CD69 up-regulation in B cells after anti-IgM stimulation. Type of series: cell-based. How it is done: as §5
(§6) Figure 4 SY-1530 blocks B-cell receptor signaling and induces apoptosis. (A–D) Human B and T cells were purified and incubated with different concentrations of BTK inhibitors for 1 h. B cells were stimulated with 50 μg/mL anti-human IgM F(ab′)2, and T cells were stimulated with 50 μg/mL anti-CD3/CD28 beads overnight directly or after washout of BTK inhibitors before stimulation. The percentage of CD69 positive cells was analyzed by flow cytometry. Data are shown as the mean ± SEM (n = 3). Statistical analysis was performed with Student’s t-test (*P < 0.05, **P < 0.01, ***P < 0.001). (E) Pfeiffer cells and Romas cells were preincubated with different concentrations of compounds for 1 h, washed with PBS, and then stimulated with anti-IgM/anti-IgG (10 μg/mL) for 10 min. Cells were lysed and analyzed by Western blot with the indicated antibodies. (F) Pfeiffer cells were treated with various concentrations of SY-1530 for 24 h. The cells were stained with both PE-Annexin and 7-AAD and analyzed by flow cytometry. Data are shown as the mean ± SEM (n = 3). Statistical analysis was performed with Student’s t-test (*P < 0.05, **P < 0.01). (G) Pfeiffer cells were incubated with BTK inhibitors in the presence of z-VAD-fmk (caspase inhibitor) or DMSO for 24 h. Cells were lysed and analyzed with specific antibodies.

For the next series, the system named is human peripheral T cells. Description: CD69 up-regulation in T cells after anti-CD3/CD28 stimulation. Type of series: cell-based. As for the experimental part:
as §5, §6

Another series has as its system TMD8 xenografts. The series can be described thus: TMD8 tumor xenograft in SCID mice. Type of series: in vivo. As for the experimental part: TMD8 cells (1.0 × 10^7 cells in 100 µL of serum-free medium containing 40% Matrigel) were injected subcutaneously into SCID mice (6–8 weeks of age), and the tumor volume was monitored twice per week. […] The compounds were formulated in 0.5% methylcellulose containing 0.1% sodium lauryl sulfate. Tumor size and body weight were measured twice per week. All experiments were approved by the institutional animal care and use committee of Shouyao Holdings and were performed in accordance with the guidelines in the U.S. National Institutes of Health Guide for the Care and Use of Laboratory Animals (Approval No. CTA-2015063).
Figure 5 SY-1530 inhibits B-cell malignancy in vivo. (A–D) TMD8 cells were injected subcutaneously into SCID mice (6–8 weeks of age; 8 mice per group). […] Tumor size (A) and body weight (B) were measured […]. On the last day, mice were sacrificed 2.5 h after administration. LC-MS/MS was performed to measure the concentration of SY-1530 in plasma (C), and tumor samples were collected and analyzed with Western blot (D). QD represents administration once daily. Data are shown as mean ± SEM. Statistical analysis was performed with two-way analysis of variance (*P < 0.05; **P < 0.01; ***P < 0.001). […] Tumor size (E), body weight (F), SY-1530 concentration in the plasma (G), and protein expression in tumors (H) were measured. Data are shown as mean ± SEM. Statistical analysis was performed with two-way analysis of variance (*P < 0.05; **P < 0.01; ***P < 0.001).

T1 sequence (Q06187 whole entry): as the sequence (Q06187 whole entry C481A) above, with A481C counted along it

On to `CC1=CC(C)=[N+]2C1=Cc1ccc(CCC(=O)NCCN3CCN(CC=CC(=O)N4CCC(n5nc(-c6ccc(Oc7ccccc7)cc6)c(C(N)=O)c5N)C4)CC3)n1[B-]2(F)F` (centres unmarked) [FL-SY-1530], for which the “Binding of labelled compound to wild-type BTK” value at BTK wild-type was “bound the wild-type BTK”. For the same compound, the “Binding of labelled compound to BTK C481A mutant” value at BTK C481A mutant is “not the C481A mutant”.

For orientation: IC50 means the point on the concentration scale where inhibition reaches its midpoint. Consider `C=CC(=O)N1CCC[C@@H](n2nc(-c3ccc(Oc4ccccc4)cc3)c3c(N)ncnc32)C1` [ibrutinib, reference compound], for which the IC50 in the series on TMD8 is 17.3 nM; in the series on Pfeiffer it was 45.9 nM; in the series on B cell, 0.85 nM; in the series on T cell it was 1000 to 10000 nM. Further, the “Up-regulation of CD69 in B cells after anti-IgM” value in the series on human peripheral B cells (continuous exposure, 10 nM) is reported as “completely abolished”; in the series with human peripheral B cells (inhibitors washed out before BCR stimulation), “blocked”. Moreover, in the series with human peripheral T cells (after washout of BTK inhibitors), the “Up-regulation of CD69 in T cells” value is “not affected”. For the same compound, the “CD69 up-regulation after T cell receptor stimulation” value in the series on human peripheral T cells (continuous exposure, 10 µM) is “significantly abrogated”. The Mouse bodyweight result with TMD8 xenografts (BID groups) is on record as “moderate decrease”. Moreover, in the series with TMD8 xenografts (BID, SY-1530 30 or 10 mg/kg, ibrutinib 30 mg/kg), the “Tumor growth versus vehicle treated group” value is “dramatically lower”.

As to `CC1=CC(C)=[N+]2C1=Cc1ccc(CCC(=O)NCCN3CCN(CC=CC(=O)N4CCCC(n5nc(-c6ccc(Oc7ccccc7)cc6)c6c(N)ncnc65)C4)CC3)n1[B-]2(F)F` (centres unmarked) [FL-ibrutinib, reference compound], at BTK wild-type, the “Binding of labelled compound to wild-type BTK” value is given as “bound the wild-type BTK”. The “Binding of labelled compound to BTK C481A mutant” value on BTK C481A mutant is recorded as “not the C481A mutant”.
